Test results reported in patent publication US8735414B2 (priority 2009, dated 2014).

Tests used:
[1] = tested on: bicistronic HCV replicon (replicon RNA, GenBank Accession No. AJ242654); test: HCV Replicon Assay; type: cell-based; settings: Hepatitis C virus, 72 h, read-out: Replicon IC50

| SMILES | IC50 [1] | melting point |
| --- | --- | --- |
| CCc1cc2c(cc1F)c(C#N)c(-c1ccc(S(=O)(=O)N[C@@H](C)C(F)(F)F)cn1)n2-c1ncc(Cl)cn1 [compound 942, 6-[1-(5-chloropyrimidin-2-yl)-3-cyano-6-ethyl-5-fluoro-1H-indol-2-yl]-N-[(2S)-1,1,1-trifluoropropan-2-yl]pyridine-3-sulfonamide] | < 500 nM | 222 to 229 °C |
| CCc1cc2c(cc1F)c(C#N)c(-c1ccc(S(=O)(=O)N[C@@H](C)C(F)(F)F)cn1)n2-c1ccnc(C)n1 [compound 943, 6-[3-cyano-6-ethyl-5-fluoro-1-(2-methylpyrimidin-4-yl)-1H-indol-2-yl]-N-[(2S)-1,1,1-trifluoropropan-2-yl]pyridine-3-sulfonamide] | 500 to 2000 nM | 138 to 146 °C |
| Cc1cc2c(cc1F)cc(-c1ccc(S(=O)(=O)N[C@@H](C)C(F)(F)F)cn1)n2-c1ccnc(F)c1 [compound 944, 6-[5-fluoro-1-(2-fluoropyridin-4-yl)-6-methyl-1H-indol-2-yl]-N-[(2S)-1,1,1-trifluoropropan-2-yl]pyridine-3-sulfonamide] | 500 to 2000 nM | 176 to 180 °C |
| Cc1cc2c(cc1F)c(C#N)c(-c1ccc(S(=O)(=O)N[C@@H](C)C(F)(F)F)cn1)n2-c1cncc(F)c1 [compound 945, 6-[3-cyano-5-fluoro-1-(5-fluoropyridin-3-yl)-6-methyl-1H-indol-2-yl]-N-[(2S)-1,1,1-trifluoropropan-2-yl]pyridine-3-sulfonamide] | < 500 nM | 199 to 204 °C |
| C[C@H](NS(=O)(=O)c1ccc(-c2c(Cl)c3cc(F)c(C4CC4)cc3n2-c2ncccn2)nc1)C(F)(F)F [compound 947, 6-[3-chloro-6-cyclopropyl-5-fluoro-1-(pyrimidin-2-yl)-1H-indol-2-yl]-N-[(2S)-1,1,1-trifluoropropan-2-yl]pyridine-3-sulfonamide] | < 500 nM | 248 to 250 °C |
| Cc1ccc2c(c1)c(C#N)c(-c1ccc(S(=O)(=O)N[C@@H](C)C(F)(F)F)cn1)n2-c1ncc(F)cn1 [compound 948, 6-[3-cyano-1-(5-fluoropyrimidin-2-yl)-5-methyl-1H-indol-2-yl]-N-[(2S)-1,1,1-trifluoropropan-2-yl]pyridine-3-sulfonamide] | < 500 nM | 202 to 207 °C |
| Cc1cc2c(C#N)c(-c3ccc(S(=O)(=O)N[C@@H](C)C(F)(F)F)cn3)n(-c3ncc(F)cn3)c2cc1F [compound 949, 6-[3-cyano-6-fluoro-1-(5-fluoropyrimidin-2-yl)-5-methyl-1H-indol-2-yl]-N-[(2S)-1,1,1-trifluoropropan-2-yl]pyridine-3-sulfonamide] | < 500 nM | 226 to 231 °C |
| C[C@H](NS(=O)(=O)c1ccc(-c2c(C#N)c3ccc(C(F)(F)F)cc3n2-c2ncccn2)nc1)C(F)(F)F [compound 950, 6-[3-cyano-1-(pyrimidin-2-yl)-6-(trifluoromethyl)-1H-indol-2-yl]-N-[(2S)-1,1,1-trifluoropropan-2-yl]pyridine-3-sulfonamide] | < 500 nM | 206 to 210 °C |
| C[C@H](NS(=O)(=O)c1ccc(-c2c(C#N)c3ccc(C(F)(F)F)cc3n2-c2cnccn2)nc1)C(F)(F)F [compound 951, 6-[3-cyano-1-(pyrazin-2-yl)-6-(trifluoromethyl)-1H-indol-2-yl]-N-[(2S)-1,1,1-trifluoropropan-2-yl]pyridine-3-sulfonamide] | < 500 nM | 208 to 213 °C |
| C[C@H](NS(=O)(=O)c1ccc(-c2c(C#N)c3ccc(C(F)(F)F)cc3n2-c2ccccn2)nc1)C(F)(F)F [compound 952, 6-[3-cyano-1-(pyridin-2-yl)-6-(trifluoromethyl)-1H-indol-2-yl]-N-[(2S)-1,1,1-trifluoropropan-2-yl]pyridine-3-sulfonamide] | < 500 nM | 173 to 176 °C |
| CCc1cc2c(cc1F)c(C#N)c(-c1ccc(S(=O)(=O)NCC3CCC3)cn1)n2-c1ncccn1 [compound 953, 6-[3-cyano-6-ethyl-5-fluoro-1-(pyrimidin-2-yl)-1H-indol-2-yl]-N-(cyclobutylmethyl)pyridine-3-sulfonamide] | < 500 nM | 207 to 214 °C |
| CCc1cc2c(cc1F)c(C#N)c(-c1ccc(S(=O)(=O)N[C@@H](C)C(F)(F)F)cn1)n2-c1cccnc1 [compound 954, 6-[3-cyano-6-ethyl-5-fluoro-1-(pyridin-3-yl)-1H-indol-2-yl]-N-[(2S)-1,1,1-trifluoropropan-2-yl]pyridine-3-sulfonamide] | < 500 nM | 205 to 212 °C |
| CCc1cc2c(cc1F)c(C#N)c(-c1ccc(S(=O)(=O)N[C@@H](C)C(F)(F)F)cn1)n2-c1cc(OC)ccn1 [compound 955, 6-[3-cyano-6-ethyl-5-fluoro-1-(4-methoxypyridin-2-yl)-1H-indol-2-yl]-N-[(2S)-1,1,1-trifluoropropan-2-yl]pyridine-3-sulfonamide] | < 500 nM | 227 to 233 °C |
| Cc1cc2c(cc1F)c(C#N)c(-c1ccc(S(=O)(=O)N[C@@H](C)C(F)(F)F)cn1)n2-c1cscn1 [compound 960, 6-[3-cyano-5-fluoro-6-methyl-1-(1,3-thiazol-4-yl)-1H-indol-2-yl]-N-[(2S)-1,1,1-trifluoropropan-2-yl]pyridine-3-sulfonamide] | < 500 nM | 184 to 189 °C |
| Cc1cc2c(cc1F)c(C#N)c(-c1ccc(S(=O)(=O)N[C@@H](C)C(F)(F)F)cn1)n2-c1ccc(F)c(C)n1 [compound 961, 6-[3-cyano-5-fluoro-1-(5-fluoro-6-methylpyridin-2-yl)-6-methyl-1H-indol-2-yl]-N-[(2S)-1,1,1-trifluoropropan-2-yl]pyridine-3-sulfonamide] | < 500 nM | 240 to 246 °C |
| Cc1cc2c(cc1F)c(C#N)c(-c1ccc(S(=O)(=O)N[C@@H](C)C(F)(F)F)cn1)n2-c1cccc(Cl)n1 [compound 962, 6-[1-(6-chloropyridin-2-yl)-3-cyano-5-fluoro-6-methyl-1H-indol-2-yl]-N-[(2S)-1,1,1-trifluoropropan-2-yl]pyridine-3-sulfonamide] | < 500 nM | 253 to 257 °C |
| CCc1cc2c(cc1F)c(C#N)c(-c1ccc(S(=O)(=O)N[C@@H](C)C(F)(F)F)cn1)n2-c1cncnc1 [compound 963, 6-[3-cyano-6-ethyl-5-fluoro-1-(pyrimidin-5-yl)-1H-indol-2-yl]-N-[(2S)-1,1,1-trifluoropropan-2-yl]pyridine-3-sulfonamide] | < 500 nM | 250 to 257 °C |
| CCc1cc2c(cc1F)c(C#N)c(-c1ccc(S(=O)(=O)N[C@@H](C)C(F)(F)F)cn1)n2-c1ccncn1 [compound 964, 6-[3-cyano-6-ethyl-5-fluoro-1-(pyrimidin-4-yl)-1H-indol-2-yl]-N-[(2S)-1,1,1-trifluoropropan-2-yl]pyridine-3-sulfonamide] | < 500 nM | 202 to 206 °C |
| CCc1cc2c(cc1F)c(C#N)c(-c1ccc(S(=O)(=O)N[C@@H](C)C(F)(F)F)cn1)n2-c1ncccc1Cl [compound 965, 6-[1-(3-chloropyridin-2-yl)-3-cyano-6-ethyl-5-fluoro-1H-indol-2-yl]-N-[(2S)-1,1,1-trifluoropropan-2-yl]pyridine-3-sulfonamide] | < 500 nM | 200 to 208 °C |
| CCc1cc2c(cc1F)c(C#N)c(-c1ccc(S(=O)(=O)N[C@@H](C)C(F)(F)F)cn1)n2-c1ccc(Cl)cn1 [compound 966, 6-[1-(5-chloropyridin-2-yl)-3-cyano-6-ethyl-5-fluoro-1H-indol-2-yl]-N-[(2S)-1,1,1-trifluoropropan-2-yl]pyridine-3-sulfonamide] | < 500 nM | 252 to 259 °C |
| Cc1cc2c(cc1F)c(C#N)c(-c1ccc(S(=O)(=O)N[C@@H](C)C(F)(F)F)cn1)n2-c1ncccc1Cl [compound 971, 6-[1-(3-chloropyridin-2-yl)-3-cyano-5-fluoro-6-methyl-1H-indol-2-yl]-N-[(2S)-1,1,1-trifluoropropan-2-yl]pyridine-3-sulfonamide] | 500 to 2000 nM | 221 to 225 °C |
| Cc1cc2c(cc1F)c(C#N)c(-c1ccc(S(=O)(=O)N[C@@H](C)C(F)(F)F)cn1)n2-c1cncs1 [compound 973, 6-[3-cyano-5-fluoro-6-methyl-1-(1,3-thiazol-5-yl)-1H-indol-2-yl]-N-[(2S)-1,1,1-trifluoropropan-2-yl]pyridine-3-sulfonamide] | < 500 nM | 234 to 238 °C |
| CCc1cc2c(cc1F)c(C#N)c(-c1ccc(S(=O)(=O)N[C@@H](C)C(F)(F)F)cn1)n2-c1ccncc1 [compound 974, 6-[3-cyano-6-ethyl-5-fluoro-1-(pyridin-4-yl)-1H-indol-2-yl]-N-[(2S)-1,1,1-trifluoropropan-2-yl]pyridine-3-sulfonamide] | < 500 nM | 209 to 215 °C |
| CCc1cc2c(cc1F)c(C#N)c(-c1ccc(S(=O)(=O)N[C@@H](C)C(F)(F)F)cn1)n2-c1cccnn1 [compound 975, 6-[3-cyano-6-ethyl-5-fluoro-1-(pyridazin-3-yl)-1H-indol-2-yl]-N-[(2S)-1,1,1-trifluoropropan-2-yl]pyridine-3-sulfonamide] | < 500 nM | 240 to 247 °C |
| CCc1cc2c(cc1F)c(C#N)c(-c1ccc(S(=O)(=O)N[C@@H](C)C(F)(F)F)cn1)n2-c1ncc(C)cn1 [compound 976, 6-[3-cyano-6-ethyl-5-fluoro-1-(5-methylpyrimidin-2-yl)-1H-indol-2-yl]-N-[(2S)-1,1,1-trifluoropropan-2-yl]pyridine-3-sulfonamide] | < 500 nM | 201 to 206 °C |
| Cc1cc2c(cc1F)c(C#N)c(-c1ccc(S(=O)(=O)N[C@@H](C)C(F)(F)F)cn1)n2-c1nncs1 [compound 977, 6-[3-cyano-5-fluoro-6-methyl-1-(1,3,4-thiadiazol-2-yl)-1H-indol-2-yl]-N-[(2S)-1,1,1-trifluoropropan-2-yl]pyridine-3-sulfonamide] | < 500 nM | 232 to 240 °C |
